Source: PMC7591920, “A protein tertiary structure mimetic modulator of the Hippo signalling pathway” (Nature Communications, 2020)
Blank lines part the entries; values can stand above or below the molecule they belong to. Bridge positions count the residues as written; N and C are the ends. Square brackets hold non-standard residues; d marks the D form. Peptide text beside a SMILES is read from it. AEEA = NCCOCCOCC(=O)O

Columns and labels:
hTEAD1–VGL4 complex = target: T1, hTEAD1–VGL4 complex (Homo sapiens, UniProt P28347); assay: Competitive FP, displacement of labelled VGL4(203–256) from hTEAD1; format: binding
T1 construct: CDNA of hTEAD1(209–426) fused with an N-terminal GST tag; GST (N); 6x His-tag (N); 3C protease cleavage site (N); made in house; host or cells: Escherichia coli BL21 DE3 RIL(K+); tracer peptide synthetic
T1 sequence (P28347 209-426, one chain of several): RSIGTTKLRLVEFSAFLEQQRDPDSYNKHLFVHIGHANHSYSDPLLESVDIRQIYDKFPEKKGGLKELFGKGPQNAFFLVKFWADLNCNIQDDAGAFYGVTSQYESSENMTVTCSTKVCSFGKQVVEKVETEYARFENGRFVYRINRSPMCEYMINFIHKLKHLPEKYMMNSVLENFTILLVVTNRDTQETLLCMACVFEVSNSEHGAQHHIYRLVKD
Experimental: Next, the ability of the peptides in our panel to inhibit the TEAD–VGL4 interaction was investigated. For this purpose, a competition pull-down experiment was performed using biotinylated VGL4(203–256) (b-1) as the bait for GST-tagged hTEAD1. b-1 was immobilized on streptavidin magnetic beads and hTEAD1 pull-down was detected using gel electrophoresis (Fig. 3d). […] To evaluate how inhibitor binding discriminates between these two binding partners, we performed a competitive binding assay based on FP.
Supplementary Figure 15│ Binding studies of hTEAD1 by fluorescence polarization. Dissociation constants were measured […]
The fluorescent cofactor (10 nM) are directly titrated with hTEAD1. After 1 hour of incubation, fluorescence polarization was measured, and a non-linear fitting was applied to the curves to determine the […]
In the competitive binding assay, first a complex with the fluorescent cofactor (10 nM) and hTEAD1 (100 nM) was formed and after 1 hour of incubation, the unlabelled peptide was titrated. After 1 hour of incubation, fluorescence polarization was measured, and a non-linear fitting was applied to the curves to determine the half maximal inhibitory concentration. (c) Competition assay […]
Mean ± SEM of triplicates were plotted for all data. Source data are provided as a Source Data file.
(§1) (1 picture or pasted object on this page, not shown here)

GST-hTEAD1 / biotin-VGL4 = target: T2, GST-hTEAD1 / biotin-VGL4 (Homo sapiens, UniProt P28347); assay: Competition pull-down of GST-hTEAD1 with immobilised biotin-VGL4; format: biochemical; settings: GST-hTEAD1 1 µM; for Competition with TEAD–VGL4 complex formation (pull-down): peptide 50 and 200 µM, biotin-VGL4 on streptavidin beads, 2.5 h, SDS-PAGE, n = 1
T2 construct: CDNA of hTEAD1(209–426) fused with an N-terminal GST tag; made in house; host or cells: Escherichia coli BL21 DE3 RIL(K+); bait peptide synthetic
T2 sequence (P28347 209-426): as the sequence (P28347 209-426, one chain of several) above
Experimental: Beads were then extensively washed with the incubation buffer followed by protein elution after boiling the beads at 95 °C for 10 min in 25 µL of SDS loading buffer. SDS PAGE was performed using standard methods and the gel was visualized after Coomassie staining with a Li-COR Fc Imager.

YAP = YAP localization assay in juvenile rat cardiomyocytes; format: cell-based; settings: for YAP ratio (nucleus/cytoplasm), Mean: 4 h, primary juvenile rat cardiomyocytes, DMSO mean 2.99; for YAP ratio in cardiomyocytes (nucleus/cytoplasm): fluorescence immunocytochemistry, 8 Hours, mean of n = 3
Experimental: We analysed the YAP sub-cellular distribution in cardiomyocytes by means of fluorescence intensity after immunocytochemistry. After 3 days in culture, the cardiac cells were treated and fixed 4, 8, and 24 h after treatment. […] Secondary antibodies were used to detect the primary antibodies (goat anti-mouse Alexa Fluor 568, A-11004, dilution 1:1000 and goat anti-rabbit AlexaFluor 488, A-11008, dilution 1:1000, both from Thermo Fisher Scientific) and nuclei were counterstained with DAPI (2-(4-amidinophenyl)-1H-indole-6-carboxamidine, dilution 1:1000, Roth). The samples were then imaged and analysed on an ImageXpress XL automated microscope (Molecular Devices). […] Data are depicted as means ± SEM.

TEAD target genes = assay: qPCR analysis of TEAD target genes in cardiomyocytes from human ES cell line (H7); format: cell-based; settings: c = 30 µM, t = 18 h
rat heart cells = assay: Cell toxicity assessment on rat heart cells in culture; settings: c(peptide) = 10 µM
Experimental: whole heart cells monitored by fluorescence microscopy after 90 minutes treatments (scale bar: 25 µm), number of […]
4E as well as control compounds (SB203580, CHIR99021) on rat heart cells in culture (c(peptide) = 10 µM). Number of independent biological replicates: n = 6, error bars = SEM. […]
cytometry analysis of live cells after 90 min incubation at 5 µM: Representative histogram plot, (-) DMSO control). Source data are provided as a Source Data file.
as §1

[1] = Peptide stability in cell culture media with 10% FBS; settings: 30 µM peptide, MEM + 10% FBS, 37 °C, HPLC/MS, duplicates
Experimental: A total of 30 µM of the peptide was incubated in MEM media supplemented with 10% FBS at 37 °C. At the indicated time point, 25 µL of the sample was withdrawn, mixed with an equal volume of the internal standard solution (6 µM Fmoc-Arg(Pbf)-OH), kept on ice for 15 min followed by centrifugation (16×g) at 4 °C for 5 min. The supernatant was analysed with LC-MS (UltiMate 3000 UHPLC Systems) using C18 reverse phase column (Nucleodur, 1.8 µm C18 gravity, 2 mm) and Thermo Orbitrap Velos Pro ETD. The peptide absorbance (λ = 280 nm) or the mass spectrometry peak intensity relative to that of the internal standard peak intensity was graphed. The stability experiments were performed in duplicates.

[2] = Circular dichroism, calculated helicity; format: physicochemical; settings: 10 mM sodium phosphate pH 7.4, 75 to 10 µM peptide, CDNN software PEPFIT mode, unbound peptide
Experimental: The spectra were obtained using a Jasco J-715 and a cuvette 0.1 mm. Represented CD spectra are an average of five measurements done between λ = 190 and 300 nm with a continuous scan mode, 50 nm min^−1 scan speed and data point every 1 nm. The α-helicity was calculated using CDNN software using the PEPFIT mode[42].

Structure (SMILES): CC[C@H](C)[C@@H]1NC(=O)[C@H](CCC(N)=O)NC(=O)[C@H](CC(C)C)NC(=O)[C@H](Cc2c[nH]c3ccccc23)NC(=O)[C@H]([C@@H](C)O)NC(=O)[C@H](CC(=O)O)NC(=O)CNC(=O)[C@H](CC(C)C)NC(=O)[C@H](C)NC(=O)[C@H](CCCCN)NC(=O)[C@H](C)NC(=O)[C@H](Cc2ccccc2)NC(=O)[C@H](Cc2c[nH]cn2)NC(=O)[C@H](CC(=O)O)NC(=O)[C@@H](NC(=O)[C@@H](NC(=O)[C@H](CO)NC(=O)COCCOCCNC(=O)[C@H](CCC(N)=O)NC(=O)[C@@H]2CCCN2C(=O)[C@H](CCCNC(=N)N)NC(=O)[C@H](CCCNC(=N)N)NC(=O)[C@H](CCCNC(=N)N)NC(=O)[C@H](CCC(N)=O)NC(=O)[C@H](CCCNC(=N)N)NC(=O)[C@H](CCCNC(=N)N)NC(=O)[C@H](CCCCN)NC(=O)[C@H](CCCCN)NC(=O)[C@H](CCCNC(=N)N)NC(=O)CNC(C)=O)C(C)C)CCC(=O)NCCCC[C@@H](C(=O)N[C@@H](C)C(=O)N[C@@H](C)C(N)=O)NC1=O [compound 7] (Ac-GRKKRRQRRRPQ[AEEA]SVEDHFAKALGDTWLQIKAA-NH2; lactam 16-31)
required concentration for VGL4 competition in the homogeneous FP-based competition assay (hTEAD1–VGL4 complex; hTEAD1): ca. 10 µM | IC50 (hTEAD1–VGL4 complex; labelled VGL4(203–256) 10 nM + hTEAD1 100 nM pre-incubated 1 h, unlabelled peptide titrated, 1 h, triplicates, read-out: IC50, inhibition of hTEAD1–VGL4 complex): 5.46 ± 0.253 µM | required concentration for VGL4 competition in the pull-down assay (GST-hTEAD1 / biotin-VGL4; immobilised biotin-VGL4, 2.5 h): ca. 100 µM | Competition with TEAD–VGL4 complex formation (pull-down) (GST-hTEAD1 / biotin-VGL4): compete with TEAD–VGL4 complex formation | YAP ratio (nucleus/cytoplasm), Mean (YAP; 5 µM): 3.475 | YAP ratio (nucleus/cytoplasm), Mean (YAP; 5 µM, listed as peptide 7): 3.48 | YAP ratio (nucleus/cytoplasm), Mean (YAP; 10 µM): 5.895 | YAP ratio (nucleus/cytoplasm), Mean (YAP; 10 µM, listed as peptide 7): 5.89 | YAP ratio in cardiomyocytes (nucleus/cytoplasm) (YAP; 5 µM of 7): 2.607 | YAP ratio in cardiomyocytes (nucleus/cytoplasm) (YAP; 10 µM of 7): 3.272 | Effect on sub-cellular distribution of YAP (YAP; juvenile rat cardiomyocytes, 4 h treatment, vs vehicle control): increased nuclear accumulation of YAP | Effect on expression of TEAD target genes (TEAD target genes; qPCR): increased levels of the cell cycle genes CYR61, CTGF, ANKRD1, and SEPINE1 | RQ (relative target quantity) (TEAD target genes; target gene ANKRD1, RT-qPCR): 4.731 | RQ (relative target quantity) (TEAD target genes; target gene CTGF, RT-qPCR): 1.987 | RQ (relative target quantity) (TEAD target genes; target gene CYR61, RT-qPCR): 3.964 | RQ (relative target quantity) (TEAD target genes; target gene SERPINE1, RT-qPCR): 3.52 | Total cell number (% DMSO control) (rat heart cells; raw data replicate 1): 121.364 % DMSO control | Total cell number (% DMSO control) (rat heart cells; raw data replicate 2): 169.336 % DMSO control | Total cell number (% DMSO control) (rat heart cells; raw data replicate 3): 227.316 % DMSO control | Total cell number (% DMSO control) (rat heart cells; raw data replicate 4): 141.087 % DMSO control | Total cell number (% DMSO control) (rat heart cells; raw data replicate 5): 122.138 % DMSO control | Total cell number (% DMSO control) (rat heart cells; raw data replicate 6): 106.984 % DMSO control | peptide intact after 24 h [1]: about 80%

Helicity (CD) [2]: 23% | Competition with TEAD–VGL4 complex formation (pull-down) (GST-hTEAD1 / biotin-VGL4): compete with TEAD–VGL4 complex formation
Structure (SMILES): CC[C@H](C)[C@@H]1NC(=O)[C@H](CCC(N)=O)NC(=O)[C@H](CC(C)C)NC(=O)[C@H](Cc2c[nH]c3ccccc23)NC(=O)[C@H]([C@@H](C)O)NC(=O)[C@H](CC(=O)O)NC(=O)CNC(=O)[C@H](CC(C)C)NC(=O)[C@H](C)NC(=O)[C@H](CCCCN)NC(=O)[C@H](C)NC(=O)[C@H](Cc2ccccc2)NC(=O)[C@H](Cc2c[nH]cn2)NC(=O)[C@H](CC(=O)O)NC(=O)[C@@H](NC(=O)[C@@H](NC(=O)[C@H](CO)NC(C)=O)C(C)C)CCC(=O)NCCCC[C@@H](C(=O)N[C@@H](C)C(=O)N[C@@H](C)C(N)=O)NC1=O [4E] (Ac-SVEDHFAKALGDTWLQIKAA-NH2; lactam 3-18)
Total cell number (% DMSO control) (rat heart cells; raw data replicate 1): 98.8636 % DMSO control | Total cell number (% DMSO control) (rat heart cells; raw data replicate 2): 123.588 % DMSO control | Total cell number (% DMSO control) (rat heart cells; raw data replicate 3): 109.739 % DMSO control | Total cell number (% DMSO control) (rat heart cells; raw data replicate 4): 95.1959 % DMSO control | Total cell number (% DMSO control) (rat heart cells; raw data replicate 5): 66.1379 % DMSO control | Total cell number (% DMSO control) (rat heart cells; raw data replicate 6): 63.0015 % DMSO control
